Measured values reported in patent publication US6730792B2, “β3 adrenergic agonists” (Eli Lilly and Company, priority 2000, dated 2004).

Target: T1, human β3 adrenergic receptor (Homo sapiens, UniProt P13945)
T1 construct: expressed in transfected cells; host or cells: DXB-11 Chinese hamster ovary (CHO) cell line, stably transfected (phd expression vector)
Assay: whole cell receptor coupled c-AMP assay, human β3 receptor in CHO cells (EC50, Emax relative to isoproterenol)
Type: cell-based
Conditions: Emax ± standard error of the mean; average of at least 3 runs except where n = 1; compound tested in the isolated form listed
Source text: The genes encoding the human β1-adrenergic receptor (Frielle et al., Proc. Natl. Acad. Sci., 84:7920-7924, 1987), the human β2-adrenergic receptor (Kobika et al., Proc. Natl. Acad. Sci., 84:46-50, 1987, Emorine et al., Proc. Natl. Acad. Sci., 84:6995-6999, 1987) and the human β3 adrenergic receptor (Granneman et al., Molecular Pharmacology, 44(2):264-70, 1993) are individually subcloned into a phd expression vector (Grinnell et al., Bio/Technology, 5:1189-1192, 1987) and transfected into the DXB-11 Chinese hamster ovary (CHO) cell line by calcium phosphate precipitation methodology. The stably transfected cells are grown to 95% confluency in 95% Dulbecco's modified Eagles Medium (DMEM), 5% fetal bovine serum and 0.01% proline. Media is removed and the cells are washed with phosphate buffered (pH 7.4) saline (without magnesium and calcium). Cells are then lifted using an enzyme free cell dissociation solution (Specialty Media, Lavallette, N.J.) and pelleted by centrifugation.
Cells from each of the above cell lines are resuspended and added (20,000/well) to a 96-well plate. Cells are incubated at 37° C. with representative compounds of the invention for 20 minutes in buffer (Hank's balanced salt solution, 10 mM HEPES, 0.1% BSA, 1 mM L-ascorbic acid, 0.2% dimethyl sulfoxide, 1 mm 3-isobutyl-1-methylxanthine, pH 7.4). After halting the incubation with quench buffer (50 mM Na Acetate, 0.25% Triton X-100, pH 5.8), the c-AMP level is quantified by scintillation proximity assay (SPA) using a modification of the commercially available c-AMP kit (Amersham, Arlington Heights, Ill.) with rabbit anti-cAMP antibody (ICN Biomedicals, Aurora, Ohio) for the kit.
Sigmoidal dose response curves, from the whole cell receptor coupled c-AMP assay are fit to a four parameter logistic equation using non linear regression: y=(a−d)/(1+(Dose/c)^b)+d where a and d are responses at zero and maximal dose, b is the slope factor and c is the EC50 as previously described (DeLean et al., Am. J. Physiol., 235, E97-E102, 1978). EC50 is assessed as the concentration producing 50% of the maximum response to each agonist.
Isoproterenol is accepted in the art as a non-selective β3 agonist and is widely used as a comparator in evaluating the activity of compounds. See Trends in Pharm. Sci., 15:3, 1994. The % intrinsic activity (Emax) of representative compounds of the invention is assessed relative to isoproterenol by the compound's maximal response divided by the isoproterenol maximal response times 100.

T1 sequence (P13945 whole entry): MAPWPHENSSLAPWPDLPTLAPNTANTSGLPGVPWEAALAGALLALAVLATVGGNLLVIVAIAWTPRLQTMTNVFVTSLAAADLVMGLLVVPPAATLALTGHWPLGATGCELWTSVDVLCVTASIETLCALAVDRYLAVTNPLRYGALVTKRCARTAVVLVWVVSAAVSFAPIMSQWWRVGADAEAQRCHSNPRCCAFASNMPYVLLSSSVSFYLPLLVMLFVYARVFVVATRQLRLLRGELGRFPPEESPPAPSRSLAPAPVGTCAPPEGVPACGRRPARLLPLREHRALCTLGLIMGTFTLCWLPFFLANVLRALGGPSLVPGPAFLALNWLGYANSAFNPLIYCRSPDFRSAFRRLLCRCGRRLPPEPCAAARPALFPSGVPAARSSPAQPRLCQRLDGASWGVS

In the case of `CC(C)(Cc1ccc(Oc2ncccc2C#N)cc1)NC[C@H](O)COc1ccccc1N1CCCC1=O` [Example 58], the “Emax (%) ± SEM” value is reported as 21.0 ± 3.4%.

In the case of `CC(C)(Cc1ccc(Oc2ccc(C(N)=O)cn2)cc1)NC[C@H](O)COc1cccc(C2=NCCN2)c1` [Example 59], the “Emax (%) ± SEM” value is reported as <10%.

For `CC(C)(Cc1ccc(Oc2ncccc2C#N)cc1)NC[C@H](O)COc1ccccc1-c1ccon1.Cl` [Example 60], the “Emax (%) ± SEM” value was 70.8 ± 3.1%.

For `CC(C)(Cc1ccc(Oc2ncccc2C#N)cc1)NC[C@H](O)COc1ccccc1-c1ccnc(N)n1` [Example 61], the “Emax (%) ± SEM” value was 32.8 ± 4.3%.

In the case of `CC(C)(Cc1ccc(Oc2ncccc2C#N)cc1)NC[C@H](O)COc1ccc(-c2ccno2)cc1.O=C(O)C(F)(F)F` [Example 62], the “Emax (%) ± SEM” value is reported as 24.7 ± 5.2%.

With `CC(C)(Cc1ccc(Oc2ncccc2C#N)cc1)NC[C@H](O)COc1ccc(F)cc1-c1cccs1.O=C(O)C(=O)O` [Example 63] the “Emax (%) ± SEM” value was 52.6 ± 2.5%.

With `CC(C)(Cc1ccc(Oc2ncccc2C#N)cc1)NC[C@H](O)COc1cccc(F)c1-c1cccs1.O=C(O)C(F)(F)F` [Example 64] the “Emax (%) ± SEM” value was 30.5 ± 6.8%.

In the case of `CC(C)(Cc1ccc(Oc2ncccc2C#N)cc1)NC[C@H](O)COc1ccccc1-c1cnco1.Cl` [Example 65], the “Emax (%) ± SEM” value is reported as 55.9 ± 5.8%.

In the case of `Cn1nccc1-c1ccccc1OC[C@@H](O)CNC(C)(C)Cc1ccc(Oc2ncccc2C(N)=O)cc1` [Example 66], the “Emax (%) ± SEM” value is reported as 26.6 n = 1%.

With `Cn1ccc(-c2ccccc2OC[C@@H](O)CNC(C)(C)Cc2ccc(Oc3ccc(C(N)=O)cn3)cc2)n1` [Example 67] the “Emax (%) ± SEM” value was 77.4 n = 1%.

In the case of `CC(C)(Cc1ccc(Oc2ncccc2C(N)=O)cc1)NC[C@H](O)COc1ccccc1-c1cccs1` [Example 68], the “Emax (%) ± SEM” value is reported as 83.7 ± 3.0%.

For `CC(C)(Cc1ccc(Oc2ncccc2C(N)=O)cc1)NC[C@H](O)COc1ccccc1-c1cccs1.Cl` [Example 69], the “Emax (%) ± SEM” value was 80.7 ± 4.4%.

With `CC(C)(Cc1ccc(Oc2ncccc2C(N)=O)cc1)NC[C@H](O)COc1ccccc1-c1nccs1` [Example 70] the “Emax (%) ± SEM” value was 73.8 ± 6.0%.

For `CC(C)(Cc1ccc(Oc2ncccc2C(N)=O)cc1)NC[C@H](O)COc1ccccc1-c1nccs1.Cl` [Example 71], the “Emax (%) ± SEM” value was 65.6 ± 1.3%.

`CC(C)(Cc1ccc(Oc2ncccc2C(N)=O)cc1)NC[C@H](O)COc1ccccc1-c1ccno1` [Example 72] was tested, and the “Emax (%) ± SEM” value was 67.6 ± 7.1%.

`CC(C)(Cc1ccc(Oc2ncccc2C(N)=O)cc1)NC[C@H](O)COc1ccccc1-c1ccno1.Cl` [Example 73] was tested, and the “Emax (%) ± SEM” value was 69.5 ± 0.1%.

In the case of `CC(C)(Cc1ccc(Oc2ncccc2C(N)=O)cc1)NC[C@H](O)COc1ccccc1-c1ccn[nH]1` [Example 74], the “Emax (%) ± SEM” value is reported as 36.8 n = 1%.

In the case of `CC(C)(Cc1ccc(Oc2ccc(C(N)=O)cn2)cc1)NC[C@H](O)COc1ccccc1-c1ccncn1` [Example 75], the “Emax (%) ± SEM” value is reported as 40.3 ± 3.7%.

With `CC(C)(Cc1ccc(Oc2ncccc2C(N)=O)cc1)NC[C@H](O)COc1ccccc1-c1ccncn1` [Example 76] the “Emax (%) ± SEM” value was 48.8 ± 5.5%.

For `CC(C)(Cc1ccc(Oc2ncccc2C(N)=O)cc1)NC[C@H](O)COc1ccccc1N1CCCC1=O` [Example 77], the “Emax (%) ± SEM” value was 22.4 ± 4.6%.

In the case of `CC(C)(Cc1ccc(Oc2ncccc2C(N)=O)cc1)NC[C@H](O)COc1ccccc1N1CCOCC1.Cl.Cl` [Example 78], the “Emax (%) ± SEM” value is reported as 30.3 ± 5.1%.

With `CC(C)(Cc1ccc(Oc2ncccc2C(N)=O)cc1)NC[C@H](O)COc1ccccc1N1CCCCC1.Cl.Cl` [Example 79] the “Emax (%) ± SEM” value was 21.3 ± 3.3%.

In the case of `CC(C)(Cc1ccc(Oc2ncccc2C(N)=O)cc1)NC[C@H](O)COc1ccccc1N1CCNCC1.Cl.Cl.Cl` [Example 80], the “Emax (%) ± SEM” value is reported as 12.3 ± 0.2%.

For `CC(C)(Cc1ccc(Oc2ncccc2C(N)=O)cc1)NC[C@H](O)COc1ccccc1-c1nc2ccccc2o1` [Example 81], the “Emax (%) ± SEM” value was 60.4 ± 5.1%.

In the case of `CC(C)(Cc1ccc(Oc2ncccc2C(N)=O)cc1)NC[C@H](O)COc1ccccc1-c1nc2ccccc2s1` [Example 82], the “Emax (%) ± SEM” value is reported as 45.9 ± 10.7%.

With `CC1(C)COC(c2ccccc2OC[C@@H](O)CNC(C)(C)Cc2ccc(Oc3ncccc3C(N)=O)cc2)=N1.Cl` [Example 83] the “Emax (%) ± SEM” value was 83.5 ± 4.4%.

With `CC(C)(Cc1ccc(Oc2ncccc2C(N)=O)cc1)NC[C@H](O)COc1ccccc1N1CCCC1` [Example 84] the “Emax (%) ± SEM” value was 72.1 ± 6.2%.

With `CC(C)(Cc1ccc(Oc2ncccc2C(N)=O)cc1)NC[C@H](O)COc1ccccc1-n1cccc1.Cl` [Example 85] the “Emax (%) ± SEM” value was 69.2 ± 12.1%.

For `CC(C)(Cc1ccc(Oc2ncccc2C(N)=O)cc1)NC[C@H](O)COc1ccccc1-c1nnco1` [Example 86], the “Emax (%) ± SEM” value was 64.6 ± 3.3%.

In the case of `CC(C)(Cc1ccc(Oc2ncccc2C(N)=O)cc1)NC[C@H](O)COc1cc(Cl)ccc1-c1nnco1` [Example 87], the “Emax (%) ± SEM” value is reported as 14.2 n = 1%.

In the case of `CC(C)(Cc1ccc(Oc2ncccc2C(N)=O)cc1)NC[C@H](O)COc1cccc(C2=NCCN2)c1` [Example 88], the “Emax (%) ± SEM” value is reported as <10%.

With `CC(C)(Cc1ccc(Oc2ncccc2C(N)=O)cc1)NC[C@H](O)COc1ccccc1-c1ccon1.Cl` [Example 89] the “Emax (%) ± SEM” value was 71.8 ± 2.5%.

With `CC(C)(Cc1ccc(Oc2ncccc2C(N)=O)cc1)NC[C@H](O)COc1ccccc1-c1ccnc(N)n1` [Example 90] the “Emax (%) ± SEM” value was 31.5 ± 2.8%.

For `CC(C)(Cc1ccc(Oc2ncccc2C(N)=O)cc1)NC[C@H](O)COc1cccc(-c2ccnc(N)n2)c1` [Example 91], the “Emax (%) ± SEM” value was 24.9 ± 9.3%.

In the case of `CC(C)(Cc1ccc(Oc2ncccc2C(N)=O)cc1)NC[C@H](O)COc1cccc(-c2cc[nH]n2)c1` [Example 92], the “Emax (%) ± SEM” value is reported as 14.4 n = 1%.

For `CC(C)(Cc1ccc(Oc2ncccc2C(N)=O)cc1)NC[C@H](O)COc1cccc(-c2ccno2)c1` [Example 93], the “Emax (%) ± SEM” value was <10%.

In the case of `CC(C)(Cc1ccc(Oc2ncccc2C(N)=O)cc1)NC[C@H](O)COc1ccc(-c2ccno2)cc1` [Example 94], the “Emax (%) ± SEM” value is reported as <10%.

In the case of `CC(C)(Cc1ccc(Oc2ncccc2C(N)=O)cc1)NC[C@H](O)COc1ccccc1-c1ccns1.O=C(O)C(=O)O` [Example 96], the “Emax (%) ± SEM” value is reported as 78.1 ± 6.6%.

With `CC(C)(Cc1ccc(Oc2ncccc2C(N)=O)cc1)NC[C@H](O)COc1ccccc1-c1nncs1.O=C(O)C(=O)O` [Example 97] the “Emax (%) ± SEM” value was 52.4 ± 0.8%.

For `CC(C)(Cc1ccc(Oc2ncccc2C(N)=O)cc1)NC[C@H](O)COc1ccccc1-c1csnn1.O=C(O)C(=O)O` [Example 98], the “Emax (%) ± SEM” value was 39.2 ± 4.0%.

With `CC(C)(Cc1ccc(Oc2ncccc2C(N)=O)cc1)NC[C@H](O)COc1ccccc1-c1cnco1.Cl` [Example 101] the “Emax (%) ± SEM” value was 67.4 ± 4.0%.

`CC(C)(Cc1ccc(Oc2ncccc2C(N)=O)cc1)NC[C@H](O)COc1ccccc1-n1cccn1.Cl` [Example 102] was tested, and the “Emax (%) ± SEM” value was 46.1 ± 4.5%.

`CC(C)(Cc1ccc(Oc2ncccc2C(N)=O)cc1)NC[C@H](O)COc1ccccc1N1CCNC1=O` [Example 103] was tested, and the “Emax (%) ± SEM” value was 21.1 ± 0.1%.

`CC(C)(Cc1ccc(Oc2ncccc2C(N)=O)cc1)NC[C@H](O)COc1ccccc1-n1ccnc1.Cl` [Example 104] was tested, and the “Emax (%) ± SEM” value was 36.0 ± 5.0%.

In the case of `CCOC(=O)c1cccnc1Oc1ccc(CC(C)(C)NC[C@H](O)COc2ccccc2-c2ccnn2C)cc1` [Example 105], the “Emax (%) ± SEM” value is reported as <10%.

With `CCOC(=O)c1cccnc1Oc1ccc(CC(C)(C)NC[C@H](O)COc2ccccc2-c2ccn(C)n2)cc1` [Example 106] the “Emax (%) ± SEM” value was 53.2 ± 2.4%.

`CCOC(=O)c1cccnc1Oc1ccc(CC(C)(C)NC[C@H](O)COc2ccccc2-c2cccs2)cc1` [Example 107] was tested, and the “Emax (%) ± SEM” value was 84.3 ± 5.3%.
